ChEMBL document CHEMBL1122521, “Nucleic acid related compounds. 47. Synthesis and biological activities of pyrimidine and purine "acyclic" nucleoside analogues” (J Med Chem, 1984)
Converted amounts (≈) assume the structure as drawn.

Assays:
Type in all cases: functional
Human alphaherpesvirus 2 = assay: Concentration required to reduce cytopathogenicity of Herpes simplex virus type 2 (strain G) by 50% in primary rabbit kidney (PRK) cells
Human alphaherpesvirus 1 = assay: Concentration required to reduce cytopathogenicity of Herpes simplex virus type 1 (strain KOS) by 50% in primary rabbit kidney (PRK) cells
L1210 [1] = assay: Inhibitory concentration required to reduce [3H-methyl]-dThd C incorporation into cellular DNA by 50% in Murine Leukemia L1210 cells; conditions: Mus musculus, read-out: ID50 (the source's name)
L1210 [2] = assay: Inhibitory concentration required to reduce [3H1',2']dUrd incorporation into cellular DNA by 50 %; conditions: Mus musculus, read-out: ID50 (the source's name)
L1210 [3] = assay: Inhibitory concentration required to reduce cell growth of Murine Leukemia L1210 cells; conditions: Mus musculus, read-out: ID50 (the source's name)
[4] = Inhibitory concentration required to reduce incorporation of 2-deoxythymidine (dThd) into DNA of Primary Rabbit kidney (PRK) cell cultures; conditions: Oryctolagus cuniculus, read-out: ID50 (the source's name)
[5] = Inhibitory concentration required to reduce incorporation of 2-deoxyuridine (dUrd) into DNA of Primary Rabbit kidney (PRK) cell cultures; conditions: Oryctolagus cuniculus, read-out: ID50 (the source's name)
[6] = tested on: Vesicular stomatitis virus; assay: Concentration required to reduce cytopathogenicity of Vesicular stomatitis virus by 50% in primary rabbit kidney (PRK) cells
[7] = Ratio of ID50 for dThd or dUrd incorporation to ID50 for HSV-1, HSV-2 or VV(whatever was lowest)
L1210 [8] = assay: Inhibitory concentration required to reduce [3H1',2']dUrd incorporation into cellular DNA by 50% in Murine Leukemia L1210 cells; conditions: Mus musculus, read-out: ID50 (the source's name)
L1210 [9] = assay: Inhibitory concentration required to reduce [14C-2]-dUrd incorporation into cellular DNA by 50% in Murine Leukemia L1210 cells; conditions: Mus musculus, read-out: ID50 (the source's name)
[10] = Inhibitory concentration required to reduce 2-deoxyuridine ([3H-1'2']dUrd) incorporation into DNA of Primary Rabbit kidney (PRK) cell cultures; conditions: Oryctolagus cuniculus, read-out: ID50 (the source's name)

Nc1nc2c(nc(Br)n2COCCO)c(=O)[nH]1
ID50 (Human alphaherpesvirus 2): 0.5 µg/mL (≈ 1.64 µM)
ID50 (Human alphaherpesvirus 1): 0.5 µg/mL (≈ 1.64 µM)
IC50 (L1210 [1]): > 500 µg/mL
IC50 (L1210 [2]): > 500 µg/mL
IC50 (L1210 [3]): 355 µg/mL (≈ 1170 µM)
IC50 [4]: 340 µg/mL (≈ 1120 µM)
IC50 [5]: 225 µg/mL (≈ 740 µM)
ID50 [6]: >400 µg/mL
Antiviral index [7]: 450

CC(=O)OCCOCn1cc(/C=C/Br)c(=O)[nH]c1=O
ID50 (Human alphaherpesvirus 2): >400 µg/mL
ID50 (Human alphaherpesvirus 1): >400 µg/mL
IC50 (L1210 [1]): > 1000 µg/mL
IC50 (L1210 [8]): > 1000 µg/mL
IC50 (L1210 [3]): > 1000 µg/mL
IC50 [4]: > 200 µg/mL
IC50 [5]: > 400 µg/mL

Nc1nc(=O)n(COCCO)cc1[N+](=O)[O-]
ID50 (Human alphaherpesvirus 2): >400 µg/mL
ID50 (Human alphaherpesvirus 1): >400 µg/mL
IC50 (L1210 [1]): > 500 µg/mL
IC50 (L1210 [8]): 374 µg/mL (≈ 1620 µM)
IC50 (L1210 [3]): 71 µg/mL (≈ 308 µM)
IC50 [4]: > 400 µg/mL
IC50 [5]: > 400 µg/mL

O=c1[nH]c(=O)n([C@H]2C[C@H](O)[C@@H](CO)O2)cc1I [IDOXURIDINE]
ID50 (Human alphaherpesvirus 2): 0.3 µg/mL (≈ 0.847 µM)
ID50 (Human alphaherpesvirus 1): 0.1 µg/mL (≈ 0.282 µM)
IC50 (L1210 [9]): 0.82 µg/mL (≈ 2.32 µM)
IC50 (L1210 [1]): 4.3 µg/mL (≈ 12.1 µM)
IC50 (L1210 [3]): 61 µg/mL (≈ 172 µM)
IC50 [4]: 2 µg/mL (≈ 5.65 µM)
IC50 [5]: 0.3 µg/mL (≈ 0.847 µM)
ID50 [6]: >400 µg/mL
Antiviral index [7]: 3

Nc1nc2c(nc(O)n2COCCO)c(=O)[nH]1
ID50 (Human alphaherpesvirus 2): 25 µg/mL (≈ 104 µM)
ID50 (Human alphaherpesvirus 1): 15 µg/mL (≈ 62.2 µM)
IC50 (L1210 [1]): > 500 µg/mL
IC50 (L1210 [2]): > 500 µg/mL
IC50 (L1210 [3]): > 500 µg/mL
IC50 [10]: ≥ 100 µg/mL
IC50 [4]: 48 µg/mL (≈ 199 µM)
ID50 [6]: >400 µg/mL
Antiviral index [7]: 3.2

Nc1nc2c(ncn2COCCO)c(=O)[nH]1 [ACYCLOVIR]
ID50 (Human alphaherpesvirus 2): 0.04 µg/mL (≈ 0.178 µM)
ID50 (Human alphaherpesvirus 1): 0.05 µg/mL (≈ 0.222 µM)
IC50 (L1210 [1]): 367 µg/mL (≈ 1630 µM)
IC50 (L1210 [8]): 50 µg/mL (≈ 222 µM)
IC50 (L1210 [3]): 13 µg/mL (≈ 57.7 µM)
IC50 [10]: 13 µg/mL (≈ 57.7 µM)
IC50 [4]: 12 µg/mL (≈ 53.3 µM)
ID50 [6]: >400 µg/mL
Antiviral index [7]: 300

Nc1ccn(COCCO)c(=O)n1
ID50 (Human alphaherpesvirus 2): 100 µg/mL (≈ 540 µM)
ID50 (Human alphaherpesvirus 1): 70 µg/mL (≈ 378 µM)
IC50 (L1210 [1]): > 1000 µg/mL
IC50 (L1210 [8]): > 1000 µg/mL
IC50 (L1210 [3]): 675 µg/mL (≈ 3650 µM)
IC50 [4]: > 400 µg/mL
IC50 [5]: > 400 µg/mL
ID50 [6]: >400 µg/mL
Antiviral index [7]: > 5

Nc1nc(Cl)c2ncn(COCCO)c2n1
ID50 (Human alphaherpesvirus 2): 20 µg/mL (≈ 82.1 µM)
ID50 (Human alphaherpesvirus 1): 2 µg/mL (≈ 8.21 µM)
IC50 (L1210 [1]): > 1000 µg/mL
IC50 (L1210 [8]): > 1000 µg/mL
IC50 (L1210 [3]): 69 µg/mL (≈ 283 µM)
IC50 [10]: > 100 µg/mL
IC50 [4]: 50 µg/mL (≈ 205 µM)
ID50 [6]: >400 µg/mL
Antiviral index [7]: 25

O=c1[nH]c(=O)n(COCCO)cc1Br
ID50 (Human alphaherpesvirus 2): >400 µg/mL
ID50 (Human alphaherpesvirus 1): >400 µg/mL
IC50 (L1210 [1]): > 1000 µg/mL
IC50 (L1210 [8]): > 1000 µg/mL
IC50 (L1210 [3]): > 1000 µg/mL
IC50 [4]: > 400 µg/mL
IC50 [5]: > 400 µg/mL

Nc1nc2c(nc(I)n2COCCO)c(=O)[nH]1
ID50 (Human alphaherpesvirus 2): 0.4 µg/mL (≈ 1.14 µM)
ID50 (Human alphaherpesvirus 1): 0.4 µg/mL (≈ 1.14 µM)
IC50 (L1210 [1]): > 1000 µg/mL
IC50 (L1210 [2]): > 1000 µg/mL
IC50 (L1210 [3]): 39 µg/mL (≈ 111 µM)
IC50 [4]: ≥ 350 µg/mL
IC50 [5]: ≥ 250 µg/mL
ID50 [6]: >400 µg/mL
Antiviral index [7]: 625

CN(C)c1nc2c(=O)[nH]c(N)nc2n1COCCO
ID50 (Human alphaherpesvirus 2): 250 µg/mL (≈ 932 µM)
ID50 (Human alphaherpesvirus 1): 30 µg/mL (≈ 112 µM)
IC50 (L1210 [1]): > 500 µg/mL
IC50 (L1210 [2]): > 500 µg/mL
IC50 (L1210 [3]): > 500 µg/mL
IC50 [4]: > 400 µg/mL
IC50 [5]: > 400 µg/mL
ID50 [6]: >400 µg/mL
Antiviral index [7]: 13

O=c1[nH]c(=O)n(COCCO)cc1Cl
ID50 (Human alphaherpesvirus 2): >400 µg/mL
ID50 (Human alphaherpesvirus 1): >400 µg/mL
IC50 (L1210 [1]): > 1000 µg/mL
IC50 (L1210 [8]): > 1000 µg/mL
IC50 (L1210 [3]): > 1000 µg/mL
IC50 [4]: > 400 µg/mL
IC50 [5]: > 400 µg/mL

O=c1[nH]c(=O)n(COCCO)cc1F
ID50 (Human alphaherpesvirus 2): >400 µg/mL
ID50 (Human alphaherpesvirus 1): >400 µg/mL
IC50 (L1210 [1]): > 1000 µg/mL
IC50 (L1210 [8]): > 1000 µg/mL
IC50 (L1210 [3]): > 1000 µg/mL
IC50 [4]: > 400 µg/mL
IC50 [5]: > 400 µg/mL

Nc1nc(O)c2nc(N3CCCCC3)n(COCCO)c2n1
ID50 (Human alphaherpesvirus 2): 150 µg/mL (≈ 486 µM)
ID50 (Human alphaherpesvirus 1): 70 µg/mL (≈ 227 µM)
IC50 (L1210 [1]): > 500 µg/mL
IC50 (L1210 [8]): > 500 µg/mL
IC50 (L1210 [3]): > 500 µg/mL
IC50 [4]: 250 µg/mL (≈ 811 µM)
IC50 [5]: 333 µg/mL (≈ 1080 µM)
ID50 [6]: >400 µg/mL
Antiviral index [7]: 3.5

Nc1ncnc2c1ncn2COCCO
ID50 (Human alphaherpesvirus 2): 10 µg/mL (≈ 47.8 µM)
ID50 (Human alphaherpesvirus 1): 10 µg/mL (≈ 47.8 µM)
IC50 (L1210 [1]): > 1000 µg/mL
IC50 (L1210 [8]): > 1000 µg/mL
IC50 (L1210 [3]): 19 µg/mL (≈ 90.8 µM)
IC50 [4]: 49 µg/mL (≈ 234 µM)
IC50 [5]: 22 µg/mL (≈ 105 µM)
ID50 [6]: >400 µg/mL
Antiviral index [7]: 2.2

O=c1[nH]c(=O)n([C@H]2C[C@H](O)[C@@H](CO)O2)cc1F [FLOXURIDINE]
IC50 (L1210 [9]): 0.003 µg/mL (≈ 0.0122 µM)
IC50 (L1210 [1]): 80 µg/mL (≈ 325 µM)
IC50 (L1210 [3]): 0.001 µg/mL (≈ 0.00406 µM)
